Measurements taken from PMC12461607, “Profiling polyamine–protein interactions in live cells through photoaffinity labeling” (RSC Chemical Biology, 2025).

Molecular target: T1, TUBA1C (Homo sapiens, UniProt Q9BQE3)
T1 construct: endogenous protein in live HeLa cells, no tag; modified C-terminal peptides 423-449 and 431-449
Experiment: live-cell photoaffinity labelling, biotin enrichment, TMT LC-MS/MS
Assay type: cell-based
Settings: covalent after UV 365 nm; live HeLa cells; C-terminal acidic region

T1 sequence (Q9BQE3 whole entry): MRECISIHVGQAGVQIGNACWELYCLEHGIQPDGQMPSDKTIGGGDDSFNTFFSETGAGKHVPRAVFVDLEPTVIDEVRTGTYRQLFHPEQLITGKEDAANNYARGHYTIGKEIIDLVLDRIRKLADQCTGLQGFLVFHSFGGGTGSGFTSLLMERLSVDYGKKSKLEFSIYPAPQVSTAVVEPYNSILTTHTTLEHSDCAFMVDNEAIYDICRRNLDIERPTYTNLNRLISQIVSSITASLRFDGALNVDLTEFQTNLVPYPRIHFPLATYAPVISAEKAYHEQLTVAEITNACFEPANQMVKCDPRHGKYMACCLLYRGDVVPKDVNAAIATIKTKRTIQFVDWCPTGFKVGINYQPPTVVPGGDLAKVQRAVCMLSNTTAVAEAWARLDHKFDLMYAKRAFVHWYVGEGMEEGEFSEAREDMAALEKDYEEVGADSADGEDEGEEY

Q: How did the “live-cell photoaffinity labelling, biotin enrichment, TMT LC-MS/MS” value turn out when `C#CCCC1(CCNCCCCNCCCN)N=N1` [compound 4, spermidine analog 4] was run?
A: Its value is “several tubulins (including TUBA1C)”.

Q: How did the “live-cell photoaffinity labelling, biotin enrichment, TMT LC-MS/MS” value turn out when `C#CCCC1(CCNCCCNCCCCN)N=N1` [compound 5, spermidine analog 5] was run?
A: The value was “several tubulins (including TUBA1C)”.
